What was measured:
C3H10t1/2 cells = assay: Live/Dead assay of encapsulated cells after shear thin delivery; assay type: cell-based; settings: 0.5 wt % hydrogel, three hours after delivery
Description: Lastly, the effect of shear thin delivery on cell viability was assessed by performing a Live-Dead assay on cells that had been encapsulated into a 0.5 wt % HPL8 hydrogel and subsequently shear thin delivered to a LSCM well FIG. 33c. In this micrograph, cells contained within the interior of the gel are visualized by viewing from the top of the gel (along the z-axis, depth of field is 90 μm.). Three hours after the gel/cell construct had been shear-thin delivered, calcien AM and ethidium homodimer were added to the top of the gel, which freely diffuse through the gel network, staining live cells green and dead cells red, respectively. […] In fact, the limited degree of cell death observed in FIG. 33c is nearly identical to that of the control experiment where cells were encapsulated in HPL8 hydrogel but not shear thin delivered (FIG. 35).
C3H10t1/2 cell growth conditions are 90% DMEM supplemented with 25 mM HEPES, 10% FBS, 5 mM L-glutamine, and 50 μg/mL Gentamicin at 37° C., 5% CO2. For confocal micrographs of hydrogels impregnated with pre-labeled cells, a suspension of 1.5 e6 cells/mL were incubated in a solution of 5 μM cell tracker green in DMEM for 45 min. […] Viability of encapsulated cells in 0.5 wt % hydrogels (before and after shear thinning) was assessed via a Live/Dead assay at 3 hr after encapsulation. […]

[1] = system: C3H10t1/2 mesenchymal stem cells; assay: Encapsulation of mesenchymal stem cells in hydrogel, LSCM imaging of cell distribution; assay type: cell-based
Description: For example, FIG. 29 contains a Laser Scanning Confocal Microscopy (LSCM) cross-sectional view of C3H10t1/2 cells encapsulated within a 0.5 wt % MAX1 hydrogel. In this micrograph, cells contained within the interior of the gel are visualized from the side of the gel (along the y-axis, depth of field is 920 μm); the top and bottom of the image is the top and bottom of the gel, respectively. Cells are encapsulated by first dissolving 1.0 wt % MAX1 in buffer at pH 7.4. To this solution, an equal volume (50 μL) of DMEM cell culture medium containing 250,000 cells is added. The salt within the DMEM electrostatically screens the lysine side chain charges resulting in peptide folding and consequent self-assembly. This simple one-to-one addition of solutions affords gels impregnated with cells. However, it is clear in FIG. 29 that the hydrogelation kinetics of MAX1 are not fast enough to entrap the cells homogeneously since a majority of the cells sediment to the bottom of the gel sample well.
C3H10t1/2 cell growth conditions are 90% DMEM supplemented with 25 mM HEPES, 10% FBS, 5 mM L-glutamine, and 50 μg/mL Gentamicin at 37° C., 5% CO2. […] Viability of encapsulated cells in 0.5 wt % hydrogels (before and after shear thinning) was assessed via a Live/Dead assay at 3 hr after encapsulation. […]

[2] = Oscillatory rheology of 0.5 wt % MAX1 and HPL8 hydrogels in DMEM, pH 7.4, 37° C.; assay type: physicochemical
Description: (§1) To a vial containing 1 mg of peptide, 100 μL of 25 mM HEPES, pH 7.4 was added resulting in a soluble 1 wt % peptide solution. To this solution, an equal volume of DMEM supplemented with 25 mM HEPES, pH 7.4 was added to initiate self-assembly, resulting in a 0.5 wt % hydrogel. All hydrogels were prepared by this method unless otherwise stated.
Oscillatory rheology experiments were performed on a TA Instruments rheometer (AR 2000) with a 25 mm diameter stainless steel parallel plate geometry with a gap height of 0.5 mm. All measurements were acquired at 37° C. For dynamic time sweeps (DTS) the hydrogels were prepared as stated above and quickly transferred to the rheometer where the storage modulus (G′) was monitored as a function of time, frequency=6 rad. sec-1 and strain=0.2%. For the shear thinning experiments, a DTS was preformed for 10 min at which time 1000% stain was applied for 30 seconds to shear thin the material. After which time, the strain was decreased to 0.2% and G′ monitored as a function of time. Dynamic frequency, dynamic strain and dynamic time sweep measurements measuring both G′ and the loss modulus (G″) are provided in FIG. 36.

[3] = CD kinetics of β-sheet formation ([θ]216) after addition of DMEM; assay type: physicochemical; settings: 0.5 wt %, pH 7.4, 37° C.
Description: as §1
CD kinetic spectra were collected on a Jasco J-810 spectropolarimeter employing 0.1 mm quartz water-jacketed cell. Peptide samples were prepared as stated above, transferred to the cell at 37° C. The ellipiticity in millidegrees were monitored at 216 nm as a function of time. Following the kinetic measurement, a wavelength scan was recorded at 37° C. using a 2 nm step size. The concentrations of MAX1 and HPL8 stock solutions were determined by absorbance (λ220=15750 cm-1.M-1) after dilution with water. Mean residue ellipticity [θ]=(θobs/10.1.c)/r, where θobs is the measured ellipticity in millidegrees, l is the length of the cell (cm), c is the concentration (M) and r is the number of residues.

Q: With VKVKVKVKV^DPPTKVEVKVKV-NH2 [HPL8] as the substance, how does the “cell viability after shear thin delivery” value (C3H10t1/2 cells) read?
A: Its value is “majority of the cells remain viable”.

Q: And the “distribution of cells encapsulated in gel” value ([1]; 0.5 wt % gel, 250K cells in DMEM, pH 7.4, 37° C.)?
A: The value was “homogeneous distribution of cells”.

Q: And the “distribution of cells after shear thinning via syringe” value ([1]; 0.5 wt % gel/cell construct formed in a syringe)?
A: The value was “still retain the homogeneous cell distribution”.

Q: And the “G′ within the first 40 seconds” value ([2]; pH 7.4, 37° C.)?
A: Its value is greater than 100 Pa.

Q: What about the “G′ at five minutes” value ([2]; phase I initial gelation) of the same substance?
A: The value was 450 Pa.

Q: What about the “G′ within a minute” value ([2]; phase I initial gelation) of the same substance?
A: The value was greater than 100 Pa.

Q: And the “time to completely fold and self-assemble affording gel” value [3]?
A: The value was “under a minute”.
